The values that follow come from PubChem BioAssay AID504741 (National Center for Advancing Translational Sciences (NCATS), 2011).

This data set concerns PBS pH 7.4 stability, 37 C, LC-MS/MS, 48 h. The experiment in a line: Inhibitors of Bloom's syndrome helicase: PBS Stability Profiling Assay. Particulars: at 2 µM; hits give high values. From the text: Survival of cells and the faithful propagation of the genome depend on elaborate mechanisms of detecting and repairing DNA damage. Treatment of advanced cancer relies on radiation therapy or chemotherapy, which kill cancer cells by causing extensive DNA damage. It is often found, that cancer cells develop resistance to therapy through enhanced activity of DNA repair functions; this has led to an increased interest in developing drugs that interfere with DNA repair, which could sensitize cancer cells to conventional therapy. Bloom syndrome helicase (BLM), is important in resolving abnormal DNA structures formed during replication or homologous recombination. Shutting down the expression of BLM leads to chromosomal instability and higher radiation sensitivity in cultured cells. After the completion of a qHTS campaign, secondary assays, and rounds of medicinal chemistry, a compound was identified to be further characterized through in vitro ADME assays. […]
2uM of compound is incubated in PBS buffer at pH 7; the reference compound is procaine. Compounds are incubated at 37 deg C for the pre-determined time periods and the when aliquots are removed. Samples are analyzed with LC-MS/MS.

Turning to `O=C(Nc1ccc(F)c(C(F)(F)F)c1)Nc1nnc(-c2ccncc2)s1`, the percent remaining is 100%.
